Laboratory results: ChEMBL document CHEMBL1201862, “PubChem BioAssay data set” (2004)
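Five compound concentrations were applied to cells in 96-well plates for 48 hours; endpoints were derived by simple linear interpolation of the resulting dose-response curve. GI50 is the concentration that inhibits growth by half.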 Calls of active or inactive are those of the source. No stated cut-off is given here; in the data, active = GI50 up to about 1.1 µM and inactive = higher.

Tests used:
Experiment in all cases: inhibition of tumour cell growth, NCI panel, 48 h
A549 = test system: A549
BT-549 = test system: BT-549
CAKI-1 = test system: CAKI-1
CCRF-CEM = test system: CCRF-CEM
COLO 205 = test system: COLO 205
IGROV-1 = test system: IGROV-1
K562 = test system: K562
KM12 = test system: KM12
M14 = test system: M14
MDA-N = test system: MDA-N
NCI-H226 = test system: NCI-H226
OVCAR-3 = test system: OVCAR-3
RXF 393 = test system: RXF 393
SK-MEL-5 = test system: SK-MEL-5
SK-OV-3 = test system: SK-OV-3
SN12C = test system: SN12C
SR = test system: SR
SW-620 = test system: SW-620
UACC-257 = test system: UACC-257
UO-31 = test system: UO-31

Row | SMILES | GI50 (A549) | GI50 (BT-549) | GI50 (CAKI-1) | GI50 (CCRF-CEM) | GI50 (COLO 205) | GI50 (IGROV-1) | GI50 (K562) | GI50 (KM12) | GI50 (M14) | GI50 (MDA-N) | GI50 (NCI-H226) | GI50 (OVCAR-3) | GI50 (RXF 393) | GI50 (SK-MEL-5) | GI50 (SK-OV-3) | GI50 (SN12C) | GI50 (SR) | GI50 (SW-620) | GI50 (UACC-257) | GI50 (UO-31)
1 | Oc1c(C(O)(c2ccccc2)c2ccc3ccccc3c2O)ccc2ccccc12 | 12.1 µM (inactive) | 17.7 µM (inactive) | 15 µM (inactive) | 0.597 µM (active) | 17.2 µM (inactive) | 7.36 µM (inactive) | 2.88 µM (inactive) | 9.38 µM (inactive) | 15.5 µM (inactive) | 12.2 µM (inactive) | 18.8 µM (inactive) | 6.47 µM (inactive) | 8.87 µM (inactive) | 5.68 µM (inactive) | 17.9 µM (inactive) | 7.74 µM (inactive) | 1.26 µM (inactive) | 11.2 µM (inactive) | 10.2 µM (inactive) | 11.2 µM (inactive)
2 | O=C(O)C(=Cc1ccc(-c2ccccc2)cc1)C(=O)O | 18 µM (inactive) | 8.79 µM (inactive) | 14.5 µM (inactive) | 4.06 µM (inactive) | 11.2 µM (inactive) | 23.3 µM (inactive) | 5.7 µM (inactive) | 15.6 µM (inactive) | 12.4 µM (inactive) | 19.1 µM (inactive) | 22 µM (inactive) | 5.53 µM (inactive) | 4.02 µM (inactive) | 11 µM (inactive) | 12.6 µM (inactive) | 11.5 µM (inactive) | 1.49 µM (inactive) | 11.3 µM (inactive) | 11.1 µM (inactive) | 12.4 µM (inactive)
3 | CCOc1ccc2nc(NC(=O)/C(CC(=O)CC(C3=C(O)c4ccccc4CC3=O)c3ccccc3)=N\O)sc2c1 (stereo not given) | > 100 µM (inactive) | > 100 µM (inactive) | > 100 µM (inactive) | > 100 µM (inactive) | > 100 µM (inactive) | > 100 µM (inactive) | > 100 µM (inactive) | > 100 µM (inactive) | > 100 µM (inactive) | > 100 µM (inactive) | > 100 µM (inactive) | > 100 µM (inactive) | > 100 µM (inactive) | > 100 µM (inactive) | > 100 µM (inactive) | > 100 µM (inactive) | > 100 µM (inactive) | > 100 µM (inactive) | > 100 µM (inactive) | > 100 µM (inactive)
4 | COCOc1ccc(C2(O)Oc3cc(OCOC)ccc3C2C)c(O)c1 (stereo not given) | 15.9 µM (inactive) | 14.2 µM (inactive) | 16.3 µM (inactive) | 14.9 µM (inactive) | 18.2 µM (inactive) | 17.6 µM (inactive) | 10.7 µM (inactive) | 16.7 µM (inactive) | 16.6 µM (inactive) | 15.3 µM (inactive) | 14.8 µM (inactive) | 13.4 µM (inactive) | 16.4 µM (inactive) | 11 µM (inactive) | 17.5 µM (inactive) | 16.4 µM (inactive) | 6.95 µM (inactive) | 18.4 µM (inactive) | 12.1 µM (inactive) | 11.6 µM (inactive)
5 | COc1ccc(C)cc1Nc1nnc(-c2ccc(N)cc2)s1 | 7.53 µM (inactive) | > 100 µM (inactive) | 73.3 µM (inactive) | 41 µM (inactive) | 80.5 µM (inactive) | > 100 µM (inactive) | 35.8 µM (inactive) | 46.2 µM (inactive) | > 100 µM (inactive) | 30.4 µM (inactive) | 44.9 µM (inactive) | 73.6 µM (inactive) | 62.4 µM (inactive) | 24.5 µM (inactive) | > 100 µM (inactive) | > 100 µM (inactive) | 38.4 µM (inactive) | 88.1 µM (inactive) | 81.1 µM (inactive) | 42 µM (inactive)
6 | O=C1CC(=O)NC(NN2C(=O)CSC2c2ccc(Cl)cc2)=N1 (stereo not given) | > 100 µM (inactive) | 33.8 µM (inactive) | > 100 µM (inactive) | 25.7 µM (inactive) | > 100 µM (inactive) | > 100 µM (inactive) | > 100 µM (inactive) | 32.8 µM (inactive) | 55.6 µM (inactive) | 54.8 µM (inactive) | > 100 µM (inactive) | > 100 µM (inactive) | > 100 µM (inactive) | > 100 µM (inactive) | > 100 µM (inactive) | 18.4 µM (inactive) | 39.2 µM (inactive) | > 100 µM (inactive) | > 100 µM (inactive) | 21.3 µM (inactive)
7 | Cc1sc2nc3n(c(=O)c2c1C)N=CN(c1ccc(Cl)cc1)C3 | > 100 µM (inactive) | > 100 µM (inactive) | > 100 µM (inactive) | > 100 µM (inactive) | > 100 µM (inactive) | > 100 µM (inactive) | > 100 µM (inactive) | > 100 µM (inactive) | > 100 µM (inactive) | > 100 µM (inactive) | > 100 µM (inactive) | > 100 µM (inactive) | > 100 µM (inactive) | > 100 µM (inactive) | > 100 µM (inactive) | > 100 µM (inactive) | 63.4 µM (inactive) | > 100 µM (inactive) | > 100 µM (inactive) | > 100 µM (inactive)
8 | CN(C)c1ccc(/C=C2\C[C@H]3[C@@H]4CCc5cc(OCCN6CCCC6)ccc5[C@H]4CC[C@]3(C)[C@H]2O)cc1 | 6.32 µM (inactive) | 16 µM (inactive) | 13.9 µM (inactive) | 2.46 µM (inactive) | 13.5 µM (inactive) | 16.1 µM (inactive) | 4.74 µM (inactive) | 5.71 µM (inactive) | 4.27 µM (inactive) | 14.8 µM (inactive) | 18.7 µM (inactive) | 14.6 µM (inactive) | 13.7 µM (inactive) | 9.66 µM (inactive) | 16.6 µM (inactive) | 16.9 µM (inactive) | 3.29 µM (inactive) | 6.53 µM (inactive) | 6.11 µM (inactive) | 5.65 µM (inactive)
9 | NCCCCc1cc(O)c2c(c1O)C(=O)c1ccccc1C2=O | 5.05 µM (inactive) | 22.2 µM (inactive) | 12.6 µM (inactive) | 3.77 µM (inactive) | 3.94 µM (inactive) | 8 µM (inactive) | 3.1 µM (inactive) | 5.41 µM (inactive) | 16.5 µM (inactive) | 14.9 µM (inactive) | 4.56 µM (inactive) | 6.75 µM (inactive) | 12.9 µM (inactive) | 12.4 µM (inactive) | 14.9 µM (inactive) | 10.6 µM (inactive) | 3.18 µM (inactive) | 6.53 µM (inactive) | 17.5 µM (inactive) | 6.73 µM (inactive)
10 | NC(=O)CC1(O)C=CC(=O)C=C1 | > 100 µM (inactive) | > 100 µM (inactive) | 41.9 µM (inactive) | > 100 µM (inactive) | > 100 µM (inactive) | > 100 µM (inactive) | > 100 µM (inactive) | > 100 µM (inactive) | > 100 µM (inactive) | > 100 µM (inactive) | > 100 µM (inactive) | > 100 µM (inactive) | > 100 µM (inactive) | > 100 µM (inactive) | > 100 µM (inactive) | > 100 µM (inactive) | 88.7 µM (inactive) | > 100 µM (inactive) | > 100 µM (inactive) | > 100 µM (inactive)
11 | Nc1ccc2c(c1)N(C(=O)CCCC(=O)N1CC(CCl)c3ccc(N)cc31)CC2CCl (stereo not given) | 0.472 µM (active) | 0.719 µM (active) | 0.141 µM (active) | 0.185 µM (active) | 0.735 µM (active) | 0.411 µM (active) | 0.873 µM (active) | 0.948 µM (active) | 0.604 µM (active) | 1.06 µM (active) | 0.0226 µM (active) | 0.971 µM (active) | 0.195 µM (active) | 0.236 µM (active) | 2.34 µM (inactive) | 0.469 µM (active) | 0.017 µM (active) | 0.977 µM (active) | 1.26 µM (inactive) | 0.561 µM (active)
12 | CN(C)C(=C1c2cc([N+](=O)[O-])ccc2-c2ccc([N+](=O)[O-])cc21)N(C)C | > 100 µM (inactive) | > 100 µM (inactive) | 5.93 µM (inactive) | > 100 µM (inactive) | > 100 µM (inactive) | > 100 µM (inactive) | > 100 µM (inactive) | > 100 µM (inactive) | > 100 µM (inactive) | > 100 µM (inactive) | > 100 µM (inactive) | > 100 µM (inactive) | > 100 µM (inactive) | > 100 µM (inactive) | > 100 µM (inactive) | > 100 µM (inactive) | 2.37 µM (inactive) | > 100 µM (inactive) | > 100 µM (inactive) | 56.2 µM (inactive)
13 | COc1cc(C2c3cc4c(cc3OC(O)C2C)OCO4)cc(OC)c1OC (stereo not given) | 0.381 µM (active) | 1.14 µM (inactive) | 0.612 µM (active) | 0.229 µM (active) | 0.315 µM (active) | 0.553 µM (active) | 0.142 µM (active) | 0.347 µM (active) | 0.376 µM (active) | 0.0887 µM (active) | 0.708 µM (active) | 0.243 µM (active) | 0.244 µM (active) | 0.272 µM (active) | 0.414 µM (active) | 0.446 µM (active) | 0.2 µM (active) | 0.292 µM (active) | 9.68 µM (inactive) | 0.695 µM (active)
14 | Cc1ncc([N+](=O)[O-])n1CCNC(=O)CCC(=O)NCCCn1ccnc1[N+](=O)[O-] | > 100 µM (inactive) | > 100 µM (inactive) | > 100 µM (inactive) | > 100 µM (inactive) | > 100 µM (inactive) | > 100 µM (inactive) | > 100 µM (inactive) | > 100 µM (inactive) | > 100 µM (inactive) | > 100 µM (inactive) | > 100 µM (inactive) | > 100 µM (inactive) | > 100 µM (inactive) | > 100 µM (inactive) | > 100 µM (inactive) | > 100 µM (inactive) | > 100 µM (inactive) | > 100 µM (inactive) | > 100 µM (inactive) | > 100 µM (inactive)
